Test results from patent US20250162973A1, “METHODS OF SYNTHESIS AND USES OF AGRIMOL COMPOUNDS” (Versitech Limited, priority 2022, published 2025).
pIC50: −log10 of the molar value. Like-named read-outs stand apart in the source and are kept apart here.

Experiments:
HeLa cell line = assay: MTT cell viability assay; format: cell-based, human; settings: MTT method
Experimental: (§1) SUNE1 (nasopharyngeal carcinoma), AGS (gastric adenocarcinoma), HeLa (cervix adenocarcinoma), HepG2 (hepatocellular carcinoma), U-87 MG (human glioblastoma cell), U2OS (osteosarcoma), MCF-7 (breast adenocarcinoma), MDA-MB-231 (breast adenocarcinoma), HCT116 (colorectal carcinoma), SW480 (colorectal adenocarcinoma), NCI-H460 (large cell lung carcinoma), NCI-H1650 (adenocarcinoma lung carcinoma), HCC827 (adenocarcinoma lung carcinoma), A549 (lung carcinoma), and CCD-19Lu (human lung fibroblast normal cell) were all obtained from American Type Culture Collection (ATCC, Manassas, VA, USA). Minimum Essential Media (MEM, Gibco®, ThermoFisher Scientific), Dulbecco's Modified Eagle Medium (DMEM, Gibco®, ThermoFisher Scientific), and RPMI-1640 Medium (Gibco®, ThermoFisher Scientific) supplemented with 10% Fetal Bovine Serum (Gibco®, ThermoFisher Scientific), and 100 U/mL penicillin-streptomycin (Gibco™, ThermoFisher Scientific) were used for cell culture. Cells were placed into an incubator with 5% CO2 that temperature was set at 37° C. For subculturing cells, 0.05% Trypsin-EDTA (Gibco®) was used for detaching and a subcultivation ratio of 1:5 was used.
(§2) The cell viability assay was performed by a typical MTT assay. Briefly, 5*10^3 cells were seeded in the 96-well flat bottom plate and allowed to attach overnight. After drug treatment with a serial dilution from 100 μM for 48 h, 10 μL of MTT solution (5 mg/ml prepared in PBS, filtered) was added into each well and incubate for 4 h at 37° C. The formed formazan was then dissolved with SDS solution (10% SDS in 10 mM HCl) and followed the determination of absorbance at 590 nm by a microplate reader. The change in cell viability was then calculated for each drug concentration, then normalized to control. Dose response curves from each assay were fit to a Boltzmann sigmoidal function (GraphPad Prism8, version8.0.0). The cytotoxicity of AGB and its derivatives was determined by the calculation of IC50 value (half maximal inhibitory concentration) from fitted curves, which was the concentration of drug induced 50% cell viability.

H460 cell line = assay: MTT cell viability assay; format: cell-based, human; settings: MTT method
Experimental: as §1, §2

A549 = assay: MTT cell viability assay; format: cell-based; settings: Homo sapiens, MTT method, 48h, Table 6
Experimental: as §1, §2

MDA-MB-231 cell line = assay: MTT cell viability assay; format: cell-based, human; settings: MTT method, 48 h
Experimental: as §1, §2

AGS cell line = assay: MTT cell viability assay; format: cell-based, human; settings: MTT method, 48 h
Experimental: as §1, §2

[1] = system: human cancer cell lines (MDA-MB-231, MCF-7, HepG2, HeLa, AGS, HCT116, SW480, SUNE-1, H460, HCC827, H1650, A549); assay: MTT cell viability assay, panel of human cancer cell lines; format: cell-based; settings: four different cancer cell lines, 48-h treatment
Experimental: as §1, §2

[2] = system: Golgi complex in NCI-H460 cells; assay: Golgi integrity, anti-GM130 immunostaining; format: cell-based, human
Description: Based on the ProTargetMiner analysis results, the mitochondrial function and ER stress were studied. […] In cells, proteins were initially synthesized in ER and transport to Golgi apparatus for processing. When a drug blocked ER to Golgi trafficking, the Golgi apparatus would suffer from a dramatic redistribution and disruption. This blocking causes accumulation of unmatured proteins in the ER, thereby disrupting the structure of Golgi apparatus and inducing ER stress. The Golgi disrupting agent, brefeldin A (BFA) was used as a positive control drug. […] The effects of BFA and AGB on the integrity of the Golgi complex were assessed by immunostaining using an anti-GM130 antibody, one of Golgi markers.

[3] = Homo sapiens, HeLa, 48h, Table 6, read-out: IC50 HeLa
[4] = Homo sapiens, NCI-H460, 48h, Table 6, read-out: IC50 H460
[5] = 48 h, read-out: IC50 HeLa cell line
[6] = 48 h, read-out: IC50 H460 cell line

Compound: CCCC(=O)c1c(O)c(Cc2c(O)c(Cc3c(O)c(C)c(OC)c(C(=O)CCC)c3O)c(O)c(C(=O)C3CCCCC3)c2O)c(O)c(C)c1OC
- pIC50 (HeLa cell line; [3]): 5.84
- pIC50 (H460 cell line; [4]): 5.64

Compound: CCCC(=O)c1c(O)c(Cc2c(O)c(Cc3c(O)c(C)c(OC)c(C(=O)CCC)c3O)c(O)c(C(=O)c3ccccc3)c2O)c(O)c(C)c1OC
- pIC50 (A549): 4.71
- pIC50 (HeLa cell line; [3]): 5.91
- pIC50 (H460 cell line; [4]): 5.56

Compound: CCCC(=O)c1c(O)c(Cc2c(O)c(C)c(O)c(Cc3c(O)c(C)c(OC)c(C(=O)CCC)c3O)c2O)c(O)c(C)c1OC
- pIC50 (H460 cell line; [4]): 5.42

Compound: CCC(=O)c1c(O)c(Cc2c(O)c(Cc3c(O)c(C)c(OC)c(C(=O)CC)c3O)c(O)c(C(=O)CCC(O)OC)c2O)c(O)c(C)c1OC (stereo not drawn)
- pIC50 (A549): 4.38
- pIC50 (HeLa cell line; [3]): 5.45
- pIC50 (H460 cell line; [4]): 5.33

Compound: CCCC(=O)c1c(O)c(Cc2c(O)c(C(=O)OC)c(O)c(C(=O)C(C)C)c2O)c(O)c(C)c1OC
- pIC50 (H460 cell line; [4]): 5.94

Compound: CCCC(=O)c1c(O)c(Cc2c(O)c(Cc3cc(OC)c(OC)c(OC)c3)c(O)c(C(=O)C(C)CC)c2O)c(O)c(C)c1OC (stereo not drawn)
- pIC50 (A549): 5.07
- pIC50 (HeLa cell line; [3]): 5.69
- pIC50 (H460 cell line; [4]): 5.64

Compound: CCCC(=O)c1c(O)c(Cc2c(O)c(C(=O)c3ccccc3)c(O)c(C(=O)c3ccccc3)c2O)c(O)c(C)c1OC
- pIC50 (A549): 4.55
- pIC50 (HeLa cell line; [3]): 5.49
- pIC50 (H460 cell line; [4]): 5.50

Compound: CCC(C)C(=O)c1c(O)c(Cc2ccccc2O)c(Cl)c(C(=O)OC)c1O (stereo not drawn)
- pIC50 (H460 cell line; [4]): 5.69

Compound: CCC(C)C(=O)c1c(O)c(Cc2cc(C)ccc2O)c(O)c(C(=O)OC)c1O (stereo not drawn)
- pIC50 (A549): 4.69
- pIC50 (HeLa cell line; [3]): 5.40
- pIC50 (H460 cell line; [4]): 5.52

Compound: CCCC(=O)c1c(O)c(Cc2c(O)c(C)c(OC)c(C(=O)CCC)c2O)c(O)c(Cc2c(O)c(C)c(OC)c(C(=O)CCC)c2O)c1O [AGC, Agrimol C]
- pIC50 (MDA-MB-231 cell line): 5.61
- pIC50 (AGS cell line): 5.10
- pIC50 (HeLa cell line; [5]): 5.82
- pIC50 (H460 cell line; [6]): 5.75

Compound: CCCC(=O)c1c(O)cc(O)c(C)c1OC [AGS]
- pIC50 (MDA-MB-231 cell line; Homo sapiens, MDA-MB-231): < 4.30
- pIC50 (AGS cell line; Homo sapiens, AGS): < 4.30
- pIC50 (HeLa cell line; Homo sapiens, HeLa, 48 h, read-out: IC50 HeLa cell line): < 4.30
- pIC50 (H460 cell line; Homo sapiens, NCI-H460, 48 h, read-out: IC50 H460 cell line): < 4.30
- cytotoxicity compared with AGB [1]: significantly lower cytotoxicity than AGB

Compound: C[C@H]1CCC/C=C/[C@@H]2C[C@H](O)C[C@H]2[C@H](O)/C=C/C(=O)O1 [BFA, brefeldin A]
- GM130 distribution (Golgi integrity) [2]: redistribution of GM130

Compound: Agrimol H [AGH]
- pIC50 (MDA-MB-231 cell line): 5.55
- pIC50 (AGS cell line): 5.27
- pIC50 (HeLa cell line; [5]): 5.81
- pIC50 (H460 cell line; [6]): 5.58

Compound: Agrimol L [AGL]
- pIC50 (MDA-MB-231 cell line): < 4.30
- pIC50 (AGS cell line): < 4.30
- pIC50 (HeLa cell line; [5]): 4.45
- pIC50 (H460 cell line; [6]): < 4.30
- cytotoxicity compared with AGB [1]: significantly lower cytotoxicity than AGB
